Laboratory results from US9440941B2, “Substituted chroman-6-yloxy-cycloalkanes and their use as pharmaceuticals” (SANOFI, priority 2013, dated 2016).
Where a name gives a salt, the structure may show the parent alone.

The compounds below were run against T1, human NCX1 (Homo sapiens, UniProt P32418) (assay: Inhibition of Ca2+ influx into cells (NCX1 reverse mode), FLIPR Fluo-4 assay). Settings: at 10 μM; NCX1 reverse mode; IC50 value not determined; read-out: Inhibition in % at 10 μM (NCX1rv).
T1 construct: expressed in transfected cells
Format: cell-based
Procedure, shortened: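 Ca2+ influx via reverse-mode exchange was evoked with gramicidin (20 µM final) after 45 min compound exposure at 16 °C in stably transfected CHO cells. Fluo-4 signal (520 nm) was followed on FLIPR at 2 s intervals. Max–min fluorescence gave percentage inhibition, from which IC50 was calculated.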

| Compound | inhibition at 10 µM [%] |
| --- | --- |
| COCC(C)(C)CNC1CCC(Oc2ccc3c(c2)CCC(c2ccccc2C)O3)CC1 (stereo not drawn) [compound 200] | 94 |

Same assay, conditions: at 10 μM; NCX1 reverse mode; IC50 value not determined; read-out: NCX1rv inhibition in % at 10 μM

| Compound | inhibition at 10 µM [%] |
| --- | --- |
| COCC(C)NC1CCC(Oc2ccc3c(c2)CCC(c2ccccc2C)O3)CC1 (stereo not drawn) [compound 188] | 96 |
| CSCCNC1CCC(Oc2ccc3c(c2)CCC(c2ccccc2C)O3)CC1 (stereo not drawn) [compound 192] | 98 |

Same assay, conditions: inhibition of NCX1 in reverse mode (Ca2+ influx into cells); read-out: NCX1rv IC50

| Compound | IC50 [nM] |
| --- | --- |
| Cn1ccc(CN(Cc2ccn(C)n2)[C@H]2CC[C@H](Oc3ccc4c(c3)CCC(c3ccccc3)O4)CC2)n1 (stereo partly drawn) [compound 84, N,N-Bis(1-methylpyrazol-3-ylmethyl)-[trans-4-(2-phenylchroman-6-yloxy)]-cyclohexylamine] | 800 |
| Cc1c(CCC(=O)N[C@H]2CC[C@H](Oc3ccc4c(c3)CCC(c3ccccc3F)O4)CC2)cnn1C (relative stereo) [compound 258] | 200 |
| c1ccc(C2CCc3cc(O[C@H]4CC[C@H](NCc5cccs5)CC4)ccc3O2)cc1 (relative stereo) [compound 51] | 600 |
| Cc1ccnn1CCC(=O)N[C@H]1CC[C@H](Oc2ccc3c(c2)CCC(c2ccccc2F)O3)CC1 (relative stereo) [compound 257] | 200 |
| c1ccc(C2CCc3cc(O[C@H]4CC[C@H](N(Cc5cncs5)Cc5cncs5)CC4)ccc3O2)cc1 (stereo partly drawn) [compound 83, [trans-4-(2-Phenylchroman-6-yloxy)]-N,N-bis(thiazol-5-ylmethyl)cyclohexylamine] | 1400 |
| CCC(C)(O)C(=O)N[C@H]1CC[C@H](Oc2ccc3c(c2)CCC(c2ccccc2F)O3)CC1 (relative stereo) [compound 238] | 100 |
| COCC(C)NC1CCC(Oc2ccc3c(c2)CCC(c2ccccc2)O3)CC1 (stereo not drawn) [compound 110] | 1300 |
| O=C(C1CCC(Oc2ccc3c(c2)CCC(c2ccccc2)O3)CC1)N(CCO)CCO (stereo not drawn) [compound 157, N,N-Bis(2-hydroxyethyl)-4-(2-phenylchroman-6-yloxy)-cyclohexanecarboxamide] | 2000 |
| c1ccc(C2CCc3cc(O[C@H]4CC[C@H](NCc5nccs5)CC4)ccc3O2)cc1 (relative stereo) [compound 55] | 400 |
| Cc1nc(CN(Cc2csc(C)n2)[C@H]2CC[C@H](Oc3ccc4c(c3)CCC(c3ccccc3)O4)CC2)cs1 (stereo partly drawn) [compound 86, N,N-Bis(2-methylthiazol-4-ylmethyl)-[trans-4-(2-phenylchroman-6-yloxy)]-cyclohexylamine] | 800 |
| COC[C@H](C)NC1CCC(Oc2ccc3c(c2)CCC(c2ccccc2C)O3)CC1 (stereo partly drawn) [compound 207] | 1500 |
| CO[C@H](C)C(=O)N[C@H]1CC[C@H](Oc2ccc3c(c2)CCC(c2ccccc2F)O3)CC1 (stereo partly drawn) [compound 255] | 200 |
| CCn1nccc1CNC(=O)C1CCC(Oc2ccc3c(c2)CCC(c2ccccc2)O3)CC1 (single isomer, unassigned; stereoisomer 2) [compound 94, N-(2-Ethyl-2H-pyrazol-3-ylmethyl)-[cis-4-(2-phenylchroman-6-yloxy)]-cyclohexanecarboxamide, stereoisomer 2 (2)] | 1600 |
| O=C(CC1CC1)N[C@H]1CC[C@H](Oc2ccc3c(c2)CCC(c2ccccc2)O3)CC1 (relative stereo) [compound 27] | 200 |
| CCC(N)C1(CC)CCC(Oc2ccc3c(c2)CCC(c2ccccc2)O3)CC1 (stereo not drawn) [compound 11, hydrochloride] | 2800 |
| O=C(N[C@H]1CC[C@H](Oc2ccc3c(c2)CCC(c2ccccc2F)O3)CC1)C1CCC1 (stereo partly drawn) [compound 244] | 100 |
| N[C@H]1CC[C@H](Oc2ccc3c(c2)CCC(c2ccccc2F)O3)CC1 (relative stereo) [compound 176, hydrochloride] | 1300 |
| c1ccc(C2CCc3cc(OC4CCC(NCC5CCCO5)CC4)ccc3O2)cc1 (stereo not drawn) [compound 129] | 700 |
| CCC(C)CN(CC(C)CC)[C@H]1CC[C@H](Oc2ccc3c(c2)CCC(c2ccccc2)O3)CC1 (stereo partly drawn) [compound 88, N,N-Bis(2-methylbutyl)-[trans-4-(2-phenylchroman-6-yloxy)]-cyclohexylamine] | 2500 |

| Compound | IC50 [nM] |
| --- | --- |
| CCn1nccc1CNC(=O)C1CCC(Oc2cc3c(cc2C)OC(c2ccccc2C)CC3)CC1 (stereo not drawn) [compound 290] | 1500 |
| Cc1cc(CN[C@H]2CC[C@H](Oc3ccc4c(c3)CCC(c3ccccc3)O4)CC2)nn1C (stereo partly drawn) [compound 56, N-(1,5-Dimethylpyrazol-3-ylmethyl)-[trans-4-(2-phenylchroman-6-yloxy)]-cyclohexylamine] | 500 |
| CCn1nccc1CNC(=O)C1CCC(Oc2ccc3c(c2Cl)CCC(c2ccccc2)O3)CC1 (stereo not drawn) [compound 293] | 4700 |
| CC1Cc2cc(OC3CCC(C(=O)NCCO)CC3)ccc2OC1c1ccccc1 (stereo not drawn) [compound 299] | 1900 |
| Cc1n[nH]c(C)c1CCC(=O)N[C@H]1CC[C@H](Oc2ccc3c(c2)CCC(c2ccccc2)O3)CC1 (relative stereo) [compound 37] | 300 |
| Fc1ccccc1C1CCc2cc(OC3CCC(NCCC4CCOCC4)CC3)ccc2O1 (stereo not drawn) [compound 220] | 2400 |
| CCn1nccc1CNC(=O)C1CCC(Oc2ccc3c(c2)CCC(c2cccc(OC)c2F)O3)CC1 (stereo not drawn) [compound 296] | 900 |
| CCC(C)CNC1CCC(Oc2ccc3c(c2)CCC(c2ccccc2)O3)CC1 (stereo not drawn) [compound 101] | 900 |
| Cc1ccccc1C1CCc2cc(O[C@H]3CC[C@H](NC(=O)CCn4cccn4)CC3)ccc2O1 (relative stereo) [compound 153] | 1200 |
| CC(C)N1CCC(CNC2CCC(Oc3ccc4c(c3)CCC(c3ccccc3)O4)CC2)CC1 (stereo not drawn) [compound 118] | 2100 |
| Cc1cc(CN[C@H]2CC[C@H](Oc3ccc4c(c3)CCC(c3ccccc3)O4)CC2)no1 (stereo partly drawn) [compound 49, N-(5-Methylisoxazol-3-ylmethyl)-[trans-4-(2-phenylchroman-6-yloxy)]-cyclohexylamine] | 600 |
| CC1Cc2cc(OC3CCC(C(=O)NCc4ccno4)CC3)ccc2OC1c1ccccc1 (stereo not drawn) [compound 298] | 1400 |
| CSCC(=O)N[C@H]1CC[C@H](Oc2ccc3c(c2)CCC(c2ccccc2F)O3)CC1 (relative stereo) [compound 241] | 40 |
| Cc1ccnn1CCC(=O)N[C@H]1CC[C@H](Oc2ccc3c(c2)CCC(c2ccccc2)O3)CC1 (relative stereo) [compound 42] | 200 |
| N[C@@H]1CC[C@@H](Oc2ccc3c(c2)CCC(c2ccccc2)O3)C1 (stereo partly drawn) [compound 304, hydrochloride] | 600 |
| CC(C)CCNC1CCC(Oc2ccc3c(c2)CCC(c2ccccc2)O3)CC1 (stereo not drawn) [compound 98] | 600 |
| Cc1c(F)cccc1C1CCc2cc(OC3CCC(C(=O)NC4CCCCC4O)CC3)ccc2O1 (single isomer, unassigned) [compound 285] | 500 |
| N[C@H]1CC[C@H](Oc2ccc3c(c2)CC[C@@H](c2ccccc2)O3)CC1 [compound 10, hydrochloride] | 300 |
| CCC(C)CN[C@H]1CC[C@H](Oc2ccc3c(c2)CCC(c2ccccc2)O3)CC1 (stereo partly drawn) [compound 70, N-(2-methylbutyl)-[trans-4-(2-phenylchroman-6-yloxy)]-cyclohexylamine] | 500 |

| Compound | IC50 [nM] |
| --- | --- |
| O=C(Cn1cccn1)N[C@H]1CC[C@H](Oc2ccc3c(c2)CCC(c2ccccc2F)O3)CC1 (relative stereo) [compound 236] | 100 |
| Cc1cccc(C)c1C1CCc2cc(O[C@H]3CC[C@H](NCC4CCOC4)CC3)ccc2O1 (relative stereo) [compound 171] | 8300 |
| CC(C)(C)CNC1CCC(Oc2ccc3c(c2)CCC(c2ccccc2)O3)CC1 (stereo not drawn) [compound 162, N-(2,2-Dimethylpropyl)-4-(2-phenylchroman-6-yloxy)-cyclohexylamine] | 2300 |
| Cc1cccc(C)c1C1CCc2cc(OC3CCC(C(=O)NCCO)CC3)ccc2O1 (stereo not drawn) [compound 166] | 6200 |
| Fc1ccccc1C1CCc2cc(OC3CCC(NCCCOC4CCCC4)CC3)ccc2O1 (stereo not drawn) [compound 229] | 6000 |
| Cc1ccccc1C1CCc2cc(OC3CCC(NCC4CCOCC4)CC3)ccc2O1 (stereo not drawn) [compound 208] | 3000 |
| Cc1nc(C(=O)N[C@H]2CC[C@H](Oc3ccc4c(c3)CCC(c3ccccc3)O4)CC2)cs1 (relative stereo) [compound 29] | 300 |
| Cc1cc(C(=O)N[C@H]2CC[C@H](Oc3ccc4c(c3)CCC(c3ccccc3F)O4)CC2)n[nH]1 (relative stereo) [compound 261] | 300 |
| N[C@H]1CC[C@@H](Oc2ccc3c(c2)CCC(c2ccccc2)O3)CC1 (relative stereo) [compound 2, hydrochloride] | 1300 |
| Cc1ccccc1C1CCc2cc(O[C@H]3CC[C@H](C(=O)Nc4ccccn4)CC3)ccc2O1 (relative stereo) [compound 266] | 300 |
| Cc1cc(CC(=O)N[C@H]2CC[C@H](Oc3ccc4c(c3)CCC(c3ccccc3F)O4)CC2)on1 (relative stereo) [compound 249] | 1100 |
| O=C(CCn1cccn1)N[C@H]1CC[C@H](Oc2ccc3c(c2)CCC(c2ccccc2F)O3)CC1 (single isomer, unassigned) [compound 179] | 1200 |
| CCn1nccc1CNC(=O)C1CCC(Oc2ccc3c(c2)CCC(c2ccccc2F)O3)CC1 (stereo not drawn) [compound 183] | 10000 |
| N-(3,3-Dimethylbutyl)-4-(2-phenylchroman-6-yloxy)-cyclohexylamine [compound 152] | 1400 |
| COc1c(F)cccc1C1CCc2cc(OC3CCC(C(=O)NCc4ccno4)CC3)ccc2O1 (stereo not drawn) [compound 301] | 200 |
| Cc1c(F)cccc1C1CCc2cc(OC3CCC(C(=O)NC[C@@H]4CCCC[C@H]4O)CC3)ccc2O1 (stereo partly drawn) [compound 284] | 800 |
| CCCN[C@H]1CC[C@H](Oc2ccc3c(c2)CC[C@@H](c2ccccc2)O3)CC1 [compound 18] | 500 |
| Cc1cccc(C)c1C1CCc2cc(O[C@H]3CC[C@H](NC(=O)CCn4cccn4)CC3)ccc2O1 (relative stereo) [compound 172] | 7100 |
| CSC(C)CCNC(=O)C1CCC(Oc2ccc3c(c2)CCC(c2cccc(F)c2C)O3)CC1 (stereo not drawn) [compound 282] | 400 |
